Data as given in PubChem BioAssay (NCI).
“And” between values parts separate entries of the source, which are not always exact repeats. Identical values can stand only once.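 1) Cells in 96-well plates. 2) Compound, 48 h, 5 concentrations. 3) Linear interpolation between surrounding doses. 4) Unreached endpoint = highest concentration. GI50 marks 50% less growth. Definition used: TGI = concentration required for complete inhibition of growth.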

Assays:
Experiment in all cases: growth of human tumour cells (NCI), 48 h
RPMI-8226 leukemia = test system: RPMI-8226 leukemia
UO-31 renal = test system: UO-31 renal
SK-MEL-2 melanoma = test system: SK-MEL-2 melanoma
OVCAR-3 ovarian = test system: OVCAR-3 ovarian
SF-295 CNS = test system: SF-295 CNS
CCRF-CEM leukemia = test system: CCRF-CEM leukemia
UACC-62 melanoma = test system: UACC-62 melanoma
U251 CNS = test system: U251 CNS
K-562 leukemia = test system: K-562 leukemia
IGROV1 ovarian = test system: IGROV1 ovarian

Structure (SMILES)	GI50 (RPMI-8226 leukemia)	TGI (RPMI-8226 leukemia)	GI50 (UO-31 renal)	TGI (UO-31 renal)	GI50 (SK-MEL-2 melanoma)	TGI (SK-MEL-2 melanoma)	GI50 (OVCAR-3 ovarian)	TGI (OVCAR-3 ovarian)	GI50 (SF-295 CNS)	TGI (SF-295 CNS)	GI50 (CCRF-CEM leukemia)	TGI (CCRF-CEM leukemia)	GI50 (UACC-62 melanoma)	TGI (UACC-62 melanoma)	GI50 (U251 CNS)	TGI (U251 CNS)	GI50 (K-562 leukemia)	TGI (K-562 leukemia)	GI50 (IGROV1 ovarian)	TGI (IGROV1 ovarian)
O=C(Nc1ccc(Cl)cc1)Nc1ccc(Nc2nncc3ccccc23)cc1	2.5 µM	8.75 µM	1.9 µM	15.8 µM	2.7 µM	7.7 µM	2.57 µM	10.3 µM	2.84 µM	11 µM	2.57 µM	17 µM	0.958 µM	7.97 µM	2.86 µM	10.3 µM	1.68 µM	26.4 µM	2.52 µM	30.7 µM
CC[C@H](CO)Nc1nc(NCc2ccccc2)n2ncc(C(C)C)c2n1	2.23 µM	6.93 µM	1.59 µM	> 100 µM	1.47 µM	6 µM	1.15 µM	4.6 µM	0.812 µM	4.74 µM	0.648 µM	9.26 µM	1.37 µM	5.5 µM	1.4 µM	10.5 µM	2.44 µM	7.38 µM	0.782 µM	> 100 µM
Cc1cc(Cl)ccc1NC(=O)CC/C(CC(=O)C(C)C)=N\NC(=O)C[n+]1ccccc1	–	> 100 µM	–	> 100 µM	–	> 100 µM	–	> 100 µM	–	> 100 µM	–	> 100 µM	–	> 100 µM	–	> 100 µM	–	> 100 µM	–	> 100 µM
COc1c2c(nc3ccccc13)-c1cc3c(c(=O)n1C2)COC(=O)C3(O)CC(=O)N1CCOCC1 (configuration not stated)	–	82 µM	–	68.9 µM	–	64.6 µM	–	55 µM	–	31.7 µM	–	3.95 µM	–	8.35 µM	–	6.92 µM	–	> 100 µM	–	98.7 µM
C1CN(SSN2CCOCC2)CCO1	27.4 µM	> 100 µM	49.5 µM	> 100 µM	> 100 µM	> 100 µM	32.3 µM	89.2 µM	32.4 µM	> 100 µM	43.9 µM	> 100 µM	58.7 µM	> 100 µM	33.6 µM	> 100 µM	4.58 µM	> 100 µM	70.7 µM	> 100 µM
CCOC(=O)NC(=O)c1cn(CCN2CCN(c3ncnc4nc[nH]c34)CC2)c(=O)[nH]c1=O	–	> 100 µM	–	> 100 µM	–	> 100 µM	–	> 100 µM	–	> 100 µM	–	> 100 µM	–	> 100 µM	–	> 100 µM	–	> 100 µM	–	> 100 µM
COc1ccc(C(=O)C(c2ccc(OC)cc2)C2(O)C(=O)Nc3c2ccc(Cl)c3C)cc1 (configuration not stated)	–	> 100 µM	–	> 100 µM	–	> 100 µM	–	> 100 µM	–	> 100 µM	–	> 100 µM	–	> 100 µM	–	> 100 µM	–	> 100 µM	–	> 100 µM
CCCCN(CCCC)c1ccc(C(=N)c2ccc(N(CCCC)CCCC)cc2)cc1	0.396 µM	1.88 µM	0.32 µM	1.38 µM	0.387 µM	1.31 µM	0.283 µM	0.946 µM	0.499 µM	1.79 µM	0.557 µM	2.27 µM	0.369 µM	1.5 µM	0.351 µM	1.28 µM	0.287 µM	1.1 µM	1.04 µM	2.66 µM
CCN(CC)Cc1ccc(Nc2nccc(-c3cnn4ncccc34)n2)cc1	0.0749 µM	1.76 µM	0.0114 µM	> 8.73 µM	0.0208 µM	0.0704 µM	0.0115 µM	0.106 µM	0.0311 µM	> 25 µM	0.0148 µM	> 25 µM	0.0188 µM	0.0694 µM	0.014 µM	> 25 µM	0.0682 µM	> 25 µM	0.0275 µM	> 20.8 µM
O=C1c2c(O)cccc2C(C2OC(CO)C(O)C(O)C2O)c2cc(CO)cc(O)c21 (configuration not stated)	–	> 100 µM	–	> 100 µM	–	> 100 µM	43.9 µM and > 100 µM	> 100 µM	–	> 100 µM	–	> 100 µM	–	> 100 µM	–	> 100 µM	–	> 100 µM	–	> 100 µM
CCc1ccc(NC(=O)COC(=O)c2cc([N+](=O)[O-])ccc2Sc2nnnn2C)cc1	6.73 µM	41.4 µM	24.9 µM	> 100 µM	23.3 µM	> 100 µM	11.7 µM	25.4 µM	17.5 µM	49.4 µM	9.11 µM	78.3 µM	15.2 µM	48 µM	15.4 µM	34.1 µM	9.4 µM	50.6 µM	24.3 µM	95.7 µM
C1=C2/CC[C@H](Sc3ccccc3)[C@H]2C2(CCCCC/1)OCCO2	–	83.1 µM	–	> 100 µM	–	33.2 µM	–	81.7 µM	–	> 100 µM	–	66.4 µM	–	62.4 µM	–	63.1 µM	–	> 100 µM	–	> 100 µM
Cc1ccc(CNc2c3ccccc3nc3cc(NC(=O)CCN4CCCC4)ccc23)cc1	0.412 µM	1.94 µM	1.25 µM	2.54 µM	1.69 µM	3.23 µM	0.768 µM	2.11 µM	1.04 µM	2.35 µM	0.392 µM	2.12 µM	1.4 µM	2.74 µM	0.688 µM	2.05 µM	–	–	–	–
CCOc1cc2ncc(C#N)c(Nc3ccc(OCc4ccccn4)c(Cl)c3)c2cc1NC(=O)/C=C/CN(C)C	1.11 µM and 0.695 µM	4.38 µM and 3.79 µM	0.122 µM and 0.133 µM	1.57 µM and 2.73 µM	0.291 µM and 0.377 µM	2.51 µM and > 4.63 µM	1.05 µM and 0.49 µM	20.2 µM and > 6.8 µM	10.9 µM and > 4.59 µM	34.7 µM and > 10 µM	1.3 µM and 2.44 µM	4.95 µM and > 6.11 µM	1.28 µM and 0.842 µM	3.87 µM and > 10 µM	0.899 µM and 1.37 µM	2.29 µM and > 10 µM	1.41 µM and 0.606 µM	3.27 µM and 3.36 µM	0.121 µM and 0.0191 µM	5.7 µM and 1.84 µM
Cc1c2c(nn1C)CSCc1cc(n(C)n1)CSc1cc(c3ccccc3c1)OCCCc1c(C(=O)O)n(C)c3c-2c(Cl)ccc13	0.0401 µM	1.33 µM	5.07 µM	17.8 µM	0.165 µM	0.429 µM	2.7 µM	6.82 µM	2.52 µM	8.37 µM	1.73 µM	10.6 µM	0.456 µM	2.35 µM	4.05 µM	13.7 µM	3.78 µM	16.8 µM	3.99 µM	14.5 µM
